Results as given in patent publication US20090263488A1, “PRESSURISED METERED DOSE INHALERS CONTAINING SOLUTIONS OF BETA-2 AGONISTS” (Chiesi Farmaceutici S.p.A., priority 2002, published 2009).

Assay: Stability study of TA 2005 HFA solution formulation in cans
Type: physicochemical
Settings: HFA formulation able to deliver 4 μg per actuation; cans stored upright at 5° C.; after nine months
Description: A stability study on a formulation able to deliver 4 μg per actuation was initiated storing the cans upright at 5° C.

SMILES: COc1ccc(C[C@@H](C)NC[C@H](O)c2ccc(O)c3[nH]c(=O)ccc23)cc1 [TA 2005, 8-hydroxy-5-[(1R)-1-hydroxy-2-[[(1R)-2-(4-methoxyphenyl)-1-methylethyl]amino]ethyl]-2(1H)-quinolinone]
- TA 2005 assay: higher than 95%
